What all share (type): functional
Conditions in all cases: route intravenous

Test [1] concerns Mus musculus. Kind of test: Inhibitory effect on the growth of Colon 26 tumor cell line transplanted subcutaneously into mice at dose of 2 mg/kg/day x 5 administered intravenously.
Test [2] relates to Mus musculus. As to the kind of experiment: Inhibitory effect on the growth of Colon 26 tumor cell line transplanted subcutaneously into mice at dose of 4 mg/kg/day x 5 administered intravenously.
Test [3] relates to Mus musculus. Kind of test: Inhibitory effect on the growth of P388/CPT tumor cell line transplanted subcutaneously into mice at dose of 4 mg/kg/day x 5 administered intravenously.
The test system of test [4] is Mus musculus. As to the kind of experiment: Inhibitory effect on the growth of P388/CPT tumor cell line transplanted subcutaneously into mice at dose of 2 mg/kg/day x 5 administered intravenously.

The structures appear in SMILES notation.

Take `CCC1(O)C(=O)OCc2c1cc1n(c2=O)Cc2c-1nc1cc3c(cc1c2CCN)OCO3.O=C(O)C(F)(F)F` (stereo not drawn): the T/C (in general, the ratio of treated to control) in test [1] was determined as 55%; in test [2] it was 49%; in test [3], 36%; in test [4] it was 65%.

On to `CC[C@@]1(O)C(=O)OCc2c1cc1n(c2=O)Cc2cc3c(CN(C)C)c(O)ccc3nc2-1` [TOPOTECAN], for which the T/C amounted to 60% in test [1], 51% in test [2], 46% in test [3] and 59% in test [4].

For the origin of these results see ChEMBL document CHEMBL1128828, “Convergent approach to water soluble camptothecin derivatives” (1995).
